Measured values taken from paper PMC4497560 (Bioorganic & medicinal chemistry letters, 2014).

Legend:
Format in all cases: biochemical
[1] = molecular target: T1, lymphoid tyrosine phosphatase (LYP) (Homo sapiens, UniProt Q9Y2R2); assay: LYP enzymatic activity assay, chelator fragments with and without zinc acetate; conditions: for Effect on LYP enzymatic activity alone: chelator alone, no added zinc; for Time dependence of LYP inhibition: incubation 0, 30, 60, 120 min; for Chelator concentration sufficient to restore LYP activity: two equiv
T1 sequence (Q9Y2R2 24-289 limits assumed): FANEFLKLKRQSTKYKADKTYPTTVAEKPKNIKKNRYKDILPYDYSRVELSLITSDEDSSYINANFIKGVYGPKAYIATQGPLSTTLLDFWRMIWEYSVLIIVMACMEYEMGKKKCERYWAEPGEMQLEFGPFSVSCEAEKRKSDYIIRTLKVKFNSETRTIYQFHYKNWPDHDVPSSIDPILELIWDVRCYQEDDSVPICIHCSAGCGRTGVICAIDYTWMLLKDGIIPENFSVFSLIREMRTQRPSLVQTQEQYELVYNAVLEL

PTP1B = assay: Inhibition of PTP1B by compound 1h; conditions: Figure 6
CD45 = assay: Inhibition of CD45 by compound 1h; conditions: Figure 6
YopH = system: YopH
[2] = in the presence of 40 μM zinc acetate

O=C(O)c1cccc(C(=O)O)n1 [Compound 8a, 2,6-pyridine dicarboxylic acid]
Effect on LYP enzymatic activity alone [1]: little effect | Chelator equivalents (relative to zinc) required to restore LYP activity [1, 2]: slightly more than two equiv | Rescue of LYP from zinc-mediated inhibition [1, 2]: capable of rescuing the enzyme from zinc-mediated inhibition

O=C1C=C(O)C(=O)c2ccccc21 [Compound 5g, 2-hydroxy-1,4-naphthoquinone]
Inhibition of LYP in the presence of zinc ([1]; 5 μM zinc acetate, follow-up studies): consistent concentration-dependent inhibition | Inhibition of LYP at the initial time point ([1]; absence of zinc, 0 min incubation): essentially no inhibition | Combined effect with zinc on LYP inhibition ([1]; in the presence of zinc (Figure S2)): additive effect | Time dependence of LYP inhibition [1]: time- dependent inhibition

c1ccc(CNCc2ccccn2)nc1 [Compound 3g, di-(2-picolyl)-amine]
Effect on LYP enzymatic activity alone [1]: little effect | Rescue of LYP from zinc-mediated inhibition [1, 2]: capable of rescuing the enzyme from zinc-mediated inhibition | Chelator concentration sufficient to restore LYP activity [1, 2]: 80 µM

Oc1ccc(Cl)c2cccnc12 [Compound 12b, 5-chloro-8-quinolol]
Effect on LYP enzymatic activity alone [1]: little effect | Rescue of LYP from zinc-mediated inhibition [1, 2]: capable of rescuing the enzyme from zinc-mediated inhibition | Chelator concentration sufficient to restore LYP activity [1, 2]: 80 µM

O=C1C=Cc2ccccc2C1=O [1,2-naphthoquinone, reference compound]
Time dependence of LYP inhibition [1]: time-dependent manner

Oc1ccc2ccccc2c1O [Compound 1h, 1,2-dihydroxynaphthalene]
Time dependence of LYP inhibition [1]: time-dependent inhibitor | Selectivity for LYP over PTP1B (PTP1B): modest selectivity | Selectivity for LYP over CD45 (CD45): modest selectivity | Selectivity for LYP over YopH (YopH): modest selectivity

CC(=O)[O-].CC(=O)[O-].[Zn+2] [zinc acetate, reference compound]
Inhibition of LYP ([1]; 100 μM zinc(II) acetate, standard assay conditions): complete inhibition | LYP activity, % of the control ([1]; at 5 μM zinc acetate): 80% | LYP activity, % of the control [1, 2]: 20%
